# Literature values in patent US8067464B2, “Compositions and methods using apocynin compounds and nitric oxide donors” (Nitromed, Inc., priority 2004, dated 2011).
smiles,measurement,setting,value
"O=[N+]([O-])O[C@H]1CO[C@H]2[C@@H]1OC[C@H]2O[N+](=O)[O-] [isosorbide dinitrate, 1,4,3,6-dianhydro-D-glucitol-2,5-dinitrate]",solubility in organic solvents,"organic solvents such as ethanol, ether and chloroform",freely soluble
same,solubility in water,water,sparingly soluble
